Source: patent US6589972B2, “β-phenylalanine derivatives as integrin antagonists” (Bayer Aktiengesellschaft, priority 1999, dated 2003)
Counter-ions that a name gives are not always drawn.

biological target: T1, αvβ3 from human A375 cells (Homo sapiens, UniProt P05106+P06756); test: αvβ3 echistatin SPA binding assay; details: purified αvβ3, labelled echistatin, WGA SPA beads
T1 construct: αvβ3 from human A375 cells was purified; endogenous in cells; host or cells: human A375 cells; receptor purified from the cells and used detergent-solubilised
T1 sequence (P06756 31-889 limits assumed): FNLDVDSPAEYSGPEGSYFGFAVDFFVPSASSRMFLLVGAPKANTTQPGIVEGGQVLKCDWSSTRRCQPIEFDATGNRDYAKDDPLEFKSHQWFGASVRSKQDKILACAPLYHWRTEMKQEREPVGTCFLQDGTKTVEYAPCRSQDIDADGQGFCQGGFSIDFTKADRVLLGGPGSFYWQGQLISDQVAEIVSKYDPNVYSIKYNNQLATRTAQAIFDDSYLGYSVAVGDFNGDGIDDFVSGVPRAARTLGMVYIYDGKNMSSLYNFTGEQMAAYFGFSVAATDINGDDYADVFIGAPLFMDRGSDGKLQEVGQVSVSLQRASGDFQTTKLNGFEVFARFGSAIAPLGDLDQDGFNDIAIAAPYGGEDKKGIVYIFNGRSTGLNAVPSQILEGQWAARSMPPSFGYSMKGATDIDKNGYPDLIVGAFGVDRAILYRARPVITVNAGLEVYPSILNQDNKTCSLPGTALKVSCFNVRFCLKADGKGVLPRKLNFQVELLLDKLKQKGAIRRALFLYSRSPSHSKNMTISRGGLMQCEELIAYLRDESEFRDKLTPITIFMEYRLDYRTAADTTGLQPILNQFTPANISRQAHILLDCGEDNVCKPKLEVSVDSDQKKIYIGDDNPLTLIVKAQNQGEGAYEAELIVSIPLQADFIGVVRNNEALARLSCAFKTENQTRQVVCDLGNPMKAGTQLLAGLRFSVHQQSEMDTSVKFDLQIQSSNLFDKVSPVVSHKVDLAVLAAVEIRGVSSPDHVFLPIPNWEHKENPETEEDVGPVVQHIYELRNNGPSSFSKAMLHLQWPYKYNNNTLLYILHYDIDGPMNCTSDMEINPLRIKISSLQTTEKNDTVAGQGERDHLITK
T1 sequence (P06756 891-1048 partner limits assumed): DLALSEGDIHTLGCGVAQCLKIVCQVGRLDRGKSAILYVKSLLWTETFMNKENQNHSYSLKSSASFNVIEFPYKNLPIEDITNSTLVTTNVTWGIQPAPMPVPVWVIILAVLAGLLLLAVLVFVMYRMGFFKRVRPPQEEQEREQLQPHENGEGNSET
T1 sequence (P05106 27-788): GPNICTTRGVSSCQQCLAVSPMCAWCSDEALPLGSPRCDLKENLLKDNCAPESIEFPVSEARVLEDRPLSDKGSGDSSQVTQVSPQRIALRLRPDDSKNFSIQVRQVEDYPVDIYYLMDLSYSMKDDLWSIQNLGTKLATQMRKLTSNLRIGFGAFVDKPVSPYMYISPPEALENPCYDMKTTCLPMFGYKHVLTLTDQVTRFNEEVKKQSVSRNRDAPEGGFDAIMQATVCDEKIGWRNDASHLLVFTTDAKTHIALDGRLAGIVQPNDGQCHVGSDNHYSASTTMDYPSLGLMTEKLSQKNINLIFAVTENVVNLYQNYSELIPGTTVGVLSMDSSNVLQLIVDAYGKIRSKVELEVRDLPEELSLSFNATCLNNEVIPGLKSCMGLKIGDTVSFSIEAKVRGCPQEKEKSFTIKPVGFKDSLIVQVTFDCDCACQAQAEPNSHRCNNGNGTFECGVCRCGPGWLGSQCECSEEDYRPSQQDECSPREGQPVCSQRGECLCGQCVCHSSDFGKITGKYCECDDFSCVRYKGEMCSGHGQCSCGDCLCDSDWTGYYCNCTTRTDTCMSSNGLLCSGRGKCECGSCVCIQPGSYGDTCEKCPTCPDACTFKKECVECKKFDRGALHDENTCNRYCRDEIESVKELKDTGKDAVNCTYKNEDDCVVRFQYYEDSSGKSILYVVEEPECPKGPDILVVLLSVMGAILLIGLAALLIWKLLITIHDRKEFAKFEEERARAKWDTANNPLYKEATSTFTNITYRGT
Method: αvβ3 from human A375 cells was purified analogously to a procedure which was described by Wong et al. (Molecular Pharmacology, 50, 529-537 (1996)). 10 μl of αvβ3 (5 ng) in TBS pH 7.6, 2 mM CaCl2, 1 mM MgCl2, 1% n-octyl glucopyranoside (Sigma); 10 μl of test substance in TBS pH 7.6, 0.1% DMSO and 45 μl of TBS pH 7.6, 2 mM CaCl2, 1 mM MgCl2, 1 mM MnCl2 were in each case incubated at room temperature for 1 h. 25 μl of WGA SPA beads (Amersham, 4 mg/ml) and 10 μl of echistatin (0.1 μCi, Amersham, chloramine T-labelled) were then added in each case. After 16 hours at room temperature, the samples were measured in a scintillation measuring apparatus (Wallac 1450).

Row | IC50 [nM] | SMILES
1 | 153 | Cc1cc(C)c(CC(=O)NC(CC(=O)O)c2cccc(NS(=O)(=O)c3cccc(NC(=N)N)c3)c2)c(C)c1 (stereo not shown) [Example 3, 3-(3-[3-Guanidinobenzenesulphonylamino]-phenyl)-3-(2,4,6-trimethylphenylacetylamino)-propionic acid, trfiluoroacetic acid salt]
2 | 12.8 | N=C(N)Nc1cccc(S(=O)(=O)Nc2cccc(C(CC(=O)O)NC(=O)c3ccccc3)c2)c1 (stereo not shown) [Example 4, 3-Benzoylamino-3-[3-(3-guanidino-benzenesulphonylamino)-phenyl]-propionic acid]
3 | 72.4 | N=C(N)Nc1cccc(S(=O)(=O)Nc2cccc(C(CC(=O)O)NC(=O)Cc3ccc(Cl)cc3Cl)c2)c1 (stereo not shown) [Example 5]
4 | 115 | CCC(C(=O)NC(CC(=O)O)c1cccc(NS(=O)(=O)c2cccc(NC(=N)N)c2)c1)c1ccccc1 (mixture of isomers) [Example 7, 3-(3-[3-Guanidino-benzenesulphonylamino]-phenyl)-3-(2-phenylbutyrylamino)-propionic acid]
5 | 33 | N=C(N)Nc1cccc(COc2cccc(C(CC(=O)O)NS(=O)(=O)c3ccccc3)c2)c1 (stereo not shown) [Example 8, 3-Benzenesulphonylamino-3-[3-(3-guanidino-benzyloxy)-phenyl]-propionic acid]
6 | 0.295 | O=C(O)CC(NS(=O)(=O)c1ccccc1)c1cccc(NS(=O)(=O)c2cccc(NC3=NCCN3)c2)c1 (stereo not shown) [Example 9]
7 | 390 | N=C(N)Nc1cccc(C(=O)Nc2cccc(C(CC(=O)O)NS(=O)(=O)c3ccccc3)c2)c1 (stereo not shown) [Example 2, 3-Benzenesulphonylamino-3-[3-(3-guanidino-benzoylamino)-phenyl]-propionic acid, trifluoroacetic acid salt]

Row | SMILES | IC50 [nM]
8 | N=C(N)Nc1cccc(S(=O)(=O)Nc2cccc(C(CC(=O)O)NC(=O)CCc3ccccc3)c2)c1 (stereo not shown) [Example 6, 3-(3-[3-Guanidino-benzenesulphonylamino]-phenyl)-3-phenylpropionylamino-propionic acid] | 36.2
9 | N=C(N)Nc1cccc(S(=O)(=O)Nc2cccc(C(CC(=O)O)NS(=O)(=O)c3ccccc3)c2)c1 (stereo not shown) [Example 1, 3-Benzenesulphonylamino-3-[3-(3-guanidino-benzenesulphonylamino)-phenyl]-3-propionic acid, trifluoroacetic acid salt] | 19

biological target: αvβ3 receptor (Homo sapiens, UniProt P05106+P06756); test: not given; details: disclosed in WO98/00395; cited from earlier work
Sequence (P06756 31-889 limits assumed): as the sequence (P06756 31-889 limits assumed) above
Sequence (P06756 891-1048 partner limits assumed): as the sequence (P06756 891-1048 partner limits assumed) above
Sequence (P05106 27-788): as the sequence (P05106 27-788) above

Row | SMILES | IC50 [nM]
10 | CC1(C)C2CCC1(CS(=O)(=O)NC(Cc1ccc(OCCCC(=O)NC(=N)N)cc1)C(=O)O)C(=O)C2 (stereo not shown) [(I)] | 0.13
